The target of the assay is T1, PD-1-Ig binding to PD-L1-TVMV-His (PD-L1-His) (Homo sapiens, UniProt Q9NZQ7).
T1 construct: hPDL1(19-239)-TVMV-His; made in house; host or cells: HEK293T cells
In words: PD-1/PD-L1 Homogenous Time-Resolved Fluorescence (HTRF) binding assay. The conditions noted are these: PD-1-Ig (20 nM) / PD-L1-His (10 nM); range classes. Summed up:
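In dPBS with 0.1% BSA and 0.05% Tween-20, inhibitors were preincubated 15 min with 10 nM PD-L1-His before 20 nM PD-1-Ig was added for another 15 min. Binding read by time-resolved FRET between Eu-cryptate anti-Ig (1 nM) and APC anti-His (20 nM).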
For orientation: Time-resolved FRET reads energy transfer from a long-lived donor to a nearby acceptor.

SMILES strings stand for the structures. Positions of bridges follow the written chain, without caps; N, C: chain ends. Non-standard residues stand in square brackets, D forms with d. Residues, ends and D or L forms follow the SMILES beside them. Trp(1-CH2COOH) = N[C@@H](Cc1cn(CC(=O)O)c2ccccc12)C(=O)O; Phe(4-F) = N[C@@H](Cc1ccc(F)cc1)C(=O)O; Phe(4-Me) = Cc1ccc(C[C@H](N)C(=O)O)cc1; Hyp = O=C(O)[C@@H]1C[C@@H](O)CN1; Aad = N[C@@H](CCCC(=O)O)C(=O)O; NMeNle = CCCC[C@H](NC)C(=O)O; Pip = O=C(O)[C@@H]1CCCCN1; Orn = NCCC[C@H](N)C(=O)O; Dab = NCC[C@H](N)C(=O)O; Dap = NC[C@H](N)C(=O)O

Broadly, the IC50 is the concentration needed to halve the response being measured. The low end stands for greater potency, the high end for weaker potency.

T1 sequence (Q9NZQ7 with tags, fused parts or gaps): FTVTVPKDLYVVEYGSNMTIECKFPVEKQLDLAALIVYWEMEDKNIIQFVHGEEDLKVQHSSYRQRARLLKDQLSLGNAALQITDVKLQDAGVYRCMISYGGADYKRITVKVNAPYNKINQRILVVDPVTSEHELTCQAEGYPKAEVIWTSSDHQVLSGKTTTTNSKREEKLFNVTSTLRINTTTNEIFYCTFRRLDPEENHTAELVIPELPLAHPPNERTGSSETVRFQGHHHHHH

For the compound `CCCC[C@H]1C(=O)N(C)[C@@H](CCCC)C(=O)N[C@@H](CC(C)C)C(=O)NCCC[C@H](N)C(=O)N[C@@H](Cc2ccc(C)cc2)C(=O)N2CCCC[C@H]2C(=O)N[C@@H](CC(N)=O)C(=O)N2CCC[C@H]2C(=O)N[C@@H](CN)C(=O)N[C@@H](CC(C)C)C(=O)N2C[C@H](O)C[C@H]2C(=O)N[C@@H](Cc2c[nH]c3ccccc23)C(=O)N[C@@H](CCN)C(=O)N[C@@H](Cc2cn(CC(=O)O)c3ccccc23)C(=O)N1C` [Example 10519] (H-[Orn][Phe(4-Me)][Pip]NP[Dap]L[Hyp]W[Dab][Trp(1-CH2COOH)][NMeNle][NMeNle]L; lactam 1-C), the IC50 lay in the range of 0.01 to 0.099 µM.
To `CCCC[C@H]1C(=O)N(C)[C@@H](CCCC)C(=O)N[C@@H](CC(C)C)C(=O)N[C@H](C(N)=O)CCCC(=O)N[C@@H](Cc2ccc(O)cc2)C(=O)N2CCCC[C@H]2C(=O)N[C@@H](CC(N)=O)C(=O)N2CCC[C@H]2C(=O)N[C@@H](CN)C(=O)N[C@@H](CCC(=O)O)C(=O)N2C[C@H](O)C[C@H]2C(=O)N[C@@H](Cc2c[nH]c3ccccc23)C(=O)N[C@@H](CCN)C(=O)N[C@@H](Cc2cn(CC(=O)O)c3ccccc23)C(=O)N1C` [Example 10520] (Y[Pip]NP[Dap]E[Hyp]W[Dab][Trp(1-CH2COOH)][NMeNle][NMeNle]L[Aad]-NH2; lactam N-14) belongs 0.01 to 0.099 µM; to `CCCC[C@H]1C(=O)N(C)[C@@H](CCCC)C(=O)N[C@@H](CC(C)C)C(=O)N[C@H](C(N)=O)CCCC(=O)N[C@@H](Cc2ccc(C)cc2)C(=O)N2CCCC[C@H]2C(=O)N[C@@H](CC(N)=O)C(=O)N2CCC[C@H]2C(=O)N[C@@H](CN)C(=O)N[C@@H](CCC(=O)O)C(=O)N2C[C@H](O)C[C@H]2C(=O)N[C@@H](Cc2c[nH]c3ccccc23)C(=O)N[C@@H](CCN)C(=O)N[C@@H](Cc2cn(CC(=O)O)c3ccccc23)C(=O)N1C` [Example 10521] ([Phe(4-Me)][Pip]NP[Dap]E[Hyp]W[Dab][Trp(1-CH2COOH)][NMeNle][NMeNle]L[Aad]-NH2; lactam N-14), 0.01 to 0.099 µM.
To `CCCC[C@H]1C(=O)N(C)[C@@H](CCCC)C(=O)N[C@@H](CC(C)C)C(=O)N[C@H](C(N)=O)CCCC(=O)N[C@@H](Cc2ccc(OC)cc2)C(=O)N2CCCC[C@H]2C(=O)N[C@@H](CC(N)=O)C(=O)N2CCC[C@H]2C(=O)N[C@@H](CN)C(=O)N[C@@H](CCC(=O)O)C(=O)N2C[C@H](O)C[C@H]2C(=O)N[C@@H](Cc2c[nH]c3ccccc23)C(=O)N[C@@H](CCN)C(=O)N[C@@H](Cc2cn(CC(=O)O)c3ccccc23)C(=O)N1C` [Example 10522] (Y(Me)[Pip]NP[Dap]E[Hyp]W[Dab][Trp(1-CH2COOH)][NMeNle][NMeNle]L[Aad]-NH2; lactam N-14) belongs 0.01 to 0.099 µM; to `CCCC[C@H]1C(=O)N(C)[C@@H](CCCC)C(=O)N[C@@H](CC(C)C)C(=O)N[C@H](C(N)=O)CCCC(=O)N[C@@H](Cc2ccc(OC)cc2)C(=O)N2CCCC[C@H]2C(=O)N[C@@H](CC(N)=O)C(=O)N2CCC[C@H]2C(=O)N[C@@H](CN)C(=O)N[C@@H](CC(C)C)C(=O)N2C[C@H](O)C[C@H]2C(=O)N[C@@H](Cc2c[nH]c3ccccc23)C(=O)N[C@@H](CCN)C(=O)N[C@@H](Cc2cn(CC(=O)O)c3ccccc23)C(=O)N1C` [Example 10525] (Y(Me)[Pip]NP[Dap]L[Hyp]W[Dab][Trp(1-CH2COOH)][NMeNle][NMeNle]L[Aad]-NH2; lactam N-14), 0.01 to 0.099 µM; to `CCCC[C@H]1C(=O)N(C)[C@@H](CCCC)C(=O)N[C@@H](CC(C)C)C(=O)N[C@H](C(N)=O)CCCC(=O)N[C@@H](Cc2ccc(F)cc2)C(=O)N2CCCC[C@H]2C(=O)N[C@@H](CC(N)=O)C(=O)N2CCC[C@H]2C(=O)N[C@@H](CN)C(=O)N[C@@H](CC(C)C)C(=O)N2C[C@H](O)C[C@H]2C(=O)N[C@@H](Cc2c[nH]c3ccccc23)C(=O)N[C@@H](CCN)C(=O)N[C@@H](Cc2cn(CC(=O)O)c3ccccc23)C(=O)N1C` [Example 10526] ([Phe(4-F)][Pip]NP[Dap]L[Hyp]W[Dab][Trp(1-CH2COOH)][NMeNle][NMeNle]L[Aad]-NH2; lactam N-14), 0.01 to 0.099 µM.
The compound `CCCC[C@H]1C(=O)N(C)[C@@H](CCCC)C(=O)N[C@@H](CC(C)C)C(=O)N[C@H](C(N)=O)COCC(=O)N[C@@H](Cc2ccc(C)cc2)C(=O)N2CCCC[C@H]2C(=O)N[C@@H](CC(N)=O)C(=O)N2CCC[C@H]2C(=O)N[C@@H](CN)C(=O)N[C@@H](CC(C)C)C(=O)N2C[C@H](O)C[C@H]2C(=O)N[C@@H](Cc2c[nH]c3ccccc23)C(=O)N[C@@H](CCN)C(=O)N[C@@H](Cc2cn(CC(=O)O)c3ccccc23)C(=O)N1C` [Example 10527] yielded an IC50 of 0.01 to 0.099 µM.
Then `CCCC[C@H]1C(=O)N(C)[C@@H](CCCC)C(=O)N[C@@H](CC(C)C)C(=O)N[C@H](C(N)=O)COCC(=O)N[C@@H](Cc2ccc(OC)cc2)C(=O)N2CCCC[C@H]2C(=O)N[C@@H](CC(N)=O)C(=O)N2CCC[C@H]2C(=O)N[C@@H](CN)C(=O)N[C@@H](CC(C)C)C(=O)N2C[C@H](O)C[C@H]2C(=O)N[C@@H](Cc2c[nH]c3ccccc23)C(=O)N[C@@H](CCN)C(=O)N[C@@H](Cc2cn(CC(=O)O)c3ccccc23)C(=O)N1C` [Example 10528], with 0.01 to 0.099 µM.
Then `CCCC[C@H]1C(=O)N(C)[C@@H](CCCC)C(=O)N[C@@H](CC(C)C)C(=O)N[C@H](C(N)=O)COCC(=O)N[C@@H](Cc2ccc(F)cc2)C(=O)N2CCCC[C@H]2C(=O)N[C@@H](CC(N)=O)C(=O)N2CCC[C@H]2C(=O)N[C@@H](CN)C(=O)N[C@@H](CC(C)C)C(=O)N2C[C@H](O)C[C@H]2C(=O)N[C@@H](Cc2c[nH]c3ccccc23)C(=O)N[C@@H](CCN)C(=O)N[C@@H](Cc2cn(CC(=O)O)c3ccccc23)C(=O)N1C` [Example 10529], with 0.01 to 0.099 µM; and `CCCC[C@H]1C(=O)N(C)[C@@H](CCCC)C(=O)N[C@@H](CC(C)C)C(=O)N[C@H](C(N)=O)COCC(=O)N[C@@H](Cc2ccc(OC)cc2)C(=O)N2CCCC[C@H]2C(=O)N[C@@H](CC(N)=O)C(=O)N2CCC[C@H]2C(=O)N[C@@H](CN)C(=O)N[C@@H](CCC(=O)O)C(=O)N2C[C@H](O)C[C@H]2C(=O)N[C@@H](Cc2c[nH]c3ccccc23)C(=O)N[C@@H](CCN)C(=O)N[C@@H](Cc2cn(CC(=O)O)c3ccccc23)C(=O)N1C` [Example 10530], with 0.001 to 0.0099 µM.
For the compound `CCCC[C@H]1C(=O)N(C)[C@@H](CCCC)C(=O)N[C@@H](CC(C)C)C(=O)N[C@H](C(N)=O)COCC(=O)N[C@@H](Cc2ccc(F)cc2)C(=O)N2CCCC[C@H]2C(=O)N[C@@H](CC(N)=O)C(=O)N2CCC[C@H]2C(=O)N[C@@H](CN)C(=O)N[C@@H](CCC(=O)O)C(=O)N2C[C@H](O)C[C@H]2C(=O)N[C@@H](Cc2c[nH]c3ccccc23)C(=O)N[C@@H](CCN)C(=O)N[C@@H](Cc2cn(CC(=O)O)c3ccccc23)C(=O)N1C` [Example 10531], the 50% inhibitory concentration (IC50) fell in the range of 0.001 to 0.0099 µM.
As to `CCCC[C@H]1C(=O)N(C)[C@@H](CCCC)C(=O)N[C@@H](CC(C)C)C(=O)N[C@H](C(N)=O)CCCC(=O)N[C@@H](Cc2ccc(F)cc2)C(=O)N2CCCC[C@H]2C(=O)N[C@@H](CC(N)=O)C(=O)N2CCC[C@H]2C(=O)N[C@@H](CN)C(=O)N[C@@H](CCC(=O)O)C(=O)N2C[C@H](O)C[C@H]2C(=O)N[C@@H](Cc2c[nH]c3ccccc23)C(=O)N[C@@H](CCN)C(=O)N[C@@H](Cc2cn(CC(=O)O)c3ccccc23)C(=O)N1C` [Example 10532] ([Phe(4-F)][Pip]NP[Dap]E[Hyp]W[Dab][Trp(1-CH2COOH)][NMeNle][NMeNle]L[Aad]-NH2; lactam N-14), the IC50 fell in the range of 0.001 to 0.0099 µM.

The values are drawn from patent US9732119B2, “Immunomodulators” (BRISTOL-MYERS SQUIBB COMPANY, priority 2014, dated 2017).
